Experiments:
[1] = molecular target: T1, E. coli sialic acid aldolase (EcNanA) (Escherichia coli, UniProt P0A6L4); assay: Sialic acid aldolase activity assay coupled to lactate dehydrogenase, EcNanA; type: biochemical; conditions: 10 mM sialic acid, 37° C., pH 7.0, A340 nm
T1 construct: purchased Carbosynth, UK CAS: 9027-60-5 (catalogue number not given)
Protocol: Aldolase cleavage was measured by monitoring the decrease in absorbance at 340 nm (A340 nm) as NADH is converted to NAD by lactate dehydrogenase in a coupled reaction where pyruvate is released from sialic acid by the aldolase. Reactions were performed in a 100 μl volume with final concentrations of 150 μM NADH (Sigma, St Louis, USA), 0.5 U LDH (Sigma, St Louis, USA), 10 mM sialic acid (Neu5Ac or 2,7-anhydro-Neu5Ac) and 1.5 μg purified RgNanA or EcNanA (E. coli aldolase CAS: 9027-60-5, Carbosynth, UK) in 50 mM Na-phosphate buffer (pH 7.0). The reactions were performed at 37° C. and monitored using FLUOstar OPTIMA (BMG LABTECH). For kinetics experiments, the sialic acid concentration was varied at 20, 10, 5, 4, 2, 1, 0.4, 0.2, 0.1 mM and the initial rate of reaction determined for each concentration in triplicate before analysis was performed by fitting the data to a Michaelis-Menten using Graph Pad Prism (V 5.03). […]
The first step of sialic acid metabolism is the conversion of sialic acid to ManNAc and pyruvate catalysed by a sialic acid aldolase (NanA). […] The substrate specificity of RgNanA was determined using a coupled activity assay where pyruvate released during the conversion of sialic acid to ManNAc is converted to lactate by a lactate dehydrogenase and the subsequent loss of absorbance at 340 nm measured as NADH is converted to NAD^+. […]

RgSBP = assay: Saturation transfer difference (STD) NMR with RgSBP; type: binding, R. gnavus ATCC 29149; conditions: RgSBP 50 μM with 2,7-anhydro-Neu5Ac 0.5 mM and Neu5Ac 1 mM
Protocol: An amicon centrifuge filter unit with a 10 kDa MW cut-off was used to exchange the protein in 25 mM d19-2,2-bis (hydroxymethyl)-2,2′,2″-nitrilotriethanol pH* 7.4 (uncorrected for the deuterium isotope effect on the pH glass electrode) D2O buffer and 50 mM NaCl. 2,7-anhydro-Neu5Ac and Neu5Ac were dissolved in 25 mM d19-2,2-bis(hydroxymethyl)-2,2′,2″-nitrilotriethanol pH* 7.4, 50 mM NaCl. Characterization of ligand binding by Saturation Transfer Difference NMR Spectroscopy (Mayer, M. and Meyer, B. (1999) was performed on a Bruker Avance 800.23 MHz at 298 K. The on- and off-resonance spectra were acquired using a train of 50 ms Gaussian selective saturation pulses using a variable saturation time from 0.5 s to 4 s, for binding epitope mapping determination while only 0.5 s of saturation time for each selected frequency was used to perform the DEEP-STD NMR experiments (Monaco et al., 2017). The water signal was suppressed by using the excitation sculpting technique (Hwang et al., 1995), while the remaining protein resonances were filtered using a T2 filter of 40 ms. All the spectra were performed with a spectral width of 10 KHz and 32768 data points using 256 or 512 scans. This time due to the absence of a 3D structure it was impossible to derive the resonances for saturation of aliphatic and aromatic residues found in the binding site as required by the DEEP-STD NMR technique. […]

T1 sequence (P0A6L4 whole entry): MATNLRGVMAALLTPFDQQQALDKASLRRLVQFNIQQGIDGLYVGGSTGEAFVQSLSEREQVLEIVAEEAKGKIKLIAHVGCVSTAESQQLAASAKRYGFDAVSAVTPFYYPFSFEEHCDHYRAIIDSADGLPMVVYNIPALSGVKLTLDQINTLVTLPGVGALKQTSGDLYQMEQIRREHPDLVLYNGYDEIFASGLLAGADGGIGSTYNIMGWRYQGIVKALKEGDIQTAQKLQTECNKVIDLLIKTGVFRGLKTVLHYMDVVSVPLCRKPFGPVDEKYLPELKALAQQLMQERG

CC(=O)N[C@H]1[C@H]([C@H](O)[C@H](O)CO)OC(O)(C(=O)O)C[C@@H]1O (stereo partly shown) [Neu5Ac, N-acetylneuraminic acid]
aldolase activity against substrate [1]: showed activity | transfer of magnetization as saturation from the protein to the ligand (RgSBP): complete absence of saturation transfer

CC(=O)N[C@H]1C2OC(C(=O)O)(C[C@@H]1O)O[C@@H]2[C@H](O)CO (stereo partly shown) [2,7-anhydro-Neu5Ac]
aldolase activity against substrate [1]: neither enzyme showed activity | transfer of magnetization as saturation from the protein to the ligand (RgSBP): clearly observed

Reference: patent US20210254138A1, “SIALIC ACID TRANSPORTER PROTEINS AS BIOMARKERS AND DRUG TARGETS” (Quadram Institute Bioscience, priority 2018, published 2021)
